From patent US10086028B2, “Method for treating vascular inflammation, improving skin beauty and improving male sexual function using ginseng berry” (AMOREPACIFIC CORPORATION, priority 2007, dated 2018)

What was measured:
type I procollagen = assay: Type I procollagen assay in human fibroblasts (ELISA); type: cell-based; details: 3rd day, sample 10 μg/mL
Protocol: Human fibroblasts were cultured on a 12-well plate incubator to a concentration of 10^5 cells/well. Then, the medium was replaced by one including the ginseng berry extract of Example 1 (1 μg/mL and 10 μg/mL), the ginseng berry saponin concentrate of Example 2 (10 μg/mL), the ginseng root extract of Comparative Example 1 (10 μg/mL) or ginsenosides Rg1, Rg2, Rh1 or Re (10 μg/mL). 10 ng/mL transforming growth factor β (TGF-β) was used as a positive control substance.
On the 3rd day of culturing, the cells were harvested and the quantity of produced type I procollagen was analyzed using ELISA. The result was calculated as a relative value with respect to the negative control group, which was not treated with a test substance.

PGE2 = assay: LPS-induced inflammatory factor PGE2 in mouse blood; type: in vivo; details: mouse blood about 12 h after LPS, intra-abdominal
Protocol: Based on the experimental result in the cell level, the effect of controlling vascular inflammation of the ginseng berry extract was tested in an animal model. Mice were grouped into a non-treated group, an LPS-induced group, a group treated with the ginseng berry extract of Example 1 (50 μg/mL and 100 μg/mL), a group treated with the ginseng berry saponin concentrate of Example 2 (100 μg/mL), a group treated with the ginseng root extract of Comparative Example 1 (100 μg/mL) and groups treated with ginsenosides Rg1, Rg2, Rh1 or Re (10 μg/mL and 20 μg/mL), with 5 mice per each group.
100 mg of each test substance per kg body weight of mouse, diluted in saline solution (0.9% NaCl), was intra-abdominally injected three times from day 1 through day 3. 2 hours after the injection on day 3, LPS diluted in saline solution (1 μg/mL) was injected intra-abdominally at a concentration of about 4 mg per kg body weight of mouse to induce inflammation by inflammatory factors (PGE2, TNF-α and IL1-β). After approximately 12 hours, the abdomen of the mouse was cut open, and blood was taken from the artery of the heart and stored at […]. The blood was kept at room temperature for 30 minutes and, after centrifuge at 4° C. and 3,000 rpm for 10 minutes, the supernatant was kept at −20° C. Then, the inflammatory factors PGE2, TNF-α and IL1-β were identified by western blotting. Measurement was made twice and the mean value was calculated. The result is shown in Table 4 and FIG. 9 (PGE2 (ng/mL)), Table 5 and FIG. 10 (TNF-α (ng/mL)), and Table 6 and FIG. 11 (IL1-β (pg/mL)).

[1] = tested on: Tumor Necrosis Factor α (TNF-α); assay: Inhibition of UV-induced TNF-α biosynthesis in human keratinocytes (ELISA); type: cell-based; details: UVB 30 mJ/cm^2, 6-24 hours, relative to UV control; sample 10 μg/mL
Protocol: Human keratinocytes were cultured on a 12-well plate incubator to a concentration of 10^5 cells/well. Then, after irradiating UVB at 30 mJ/cm^2, the medium was replaced by one including the ginseng berry extract of Example 1 (0.1 μg/mL, 1 μg/mL and 10 μg/mL), the ginseng berry saponin concentrate of Example 2 (10 μg/mL), the ginseng root extract of Comparative Example 1 (0.1 μg/mL, 1 μg/mL and 10 μg/mL) or ginsenosides Rg1, Rg2, Rh1 or Re (10 μg/mL). After 6-24 hours of culturing, the cells were harvested and the quantity of TNF-α was analyzed using ELISA (Pharmingen 555212). The result was calculated as a relative value with respect to the control group, which was irradiated with UV without treating with a test substance.

[2] = tested on: matrix metalloproteinase I (MMP-1); assay: Inhibition of UVB-induced MMP-1 expression in human fibroblasts (ELISA); type: cell-based; details: UVB 40 mJ/cm^2, 2nd day, relative to UV control; sample 10 μg/mL
Protocol: Human fibroblasts were cultured on a 12-well plate incubator to a concentration of 10^5 cells/well. Then, after irradiating UVB at 40 mJ/cm^2, the medium was replaced by one including the ginseng berry extract of Example 1 (1 μg/mL and 10 μg/mL), the ginseng berry saponin concentrate of Example 2 (10 μg/mL), the ginseng root extract of Comparative Example 1 (10 μg/mL) or ginsenosides Rg1, Rg2, Rh1 or Re (10 μg/mL). 10 ng/mL TGF-β was used as a positive control substance. On the 2nd day of culturing, the cells were harvested and the quantity of produced matrix metalloproteinase I (MMP-1) was analyzed using ELISA. The result was calculated as a relative value with respect to the control group, which was irradiated with UV without treating with a test substance.

[3] = tested on: human HaCaT keratinocytes; assay: Antioxidative effect: removal of UV-generated ROS in HaCaT keratinocytes; type: cell-based; details: ROS generated by UV in HaCaT; sample 10 μg/mL (Trolox given as (10))
Text: Antioxidative effect of the ginseng berry extract was investigated by comparing the ability of removing reactive oxygen species (ROS) generated in human HaCaT keratinocytes by ultraviolet (UV) radiation.

Structure (SMILES) | Procollagen activity relative to negative control (%) (type I procollagen) | PGE2, Mean ± standard deviation (PGE2; group (10 μg/mL)) | PGE2, Result 1 (PGE2; group (10 μg/mL)) | PGE2, Result 2 (PGE2; group (10 μg/mL)) | PGE2, Mean ± standard deviation (PGE2; group (20 μg/mL)) | PGE2, Result 1 (PGE2; group (20 μg/mL)) | PGE2, Result 2 (PGE2; group (20 μg/mL)) | TNF-α biosynthesis (%) [1] | MMP-1 expression (%) [2] | Antioxidative effect (%) [3]
CC(C)=CCC[C@](C)(O[C@@H]1O[C@H](CO)[C@@H](O)[C@H](O)[C@H]1O)[C@H]1CC[C@]2(C)[C@@H]1[C@H](O)C[C@@H]1[C@@]3(C)CC[C@H](O)C(C)(C)[C@@H]3[C@@H](O[C@@H]3O[C@H](CO)[C@@H](O)[C@H](O)[C@H]3O)C[C@]12C [Rg1] | 105% | 6.32 ± 0.04 ng/mL | 6.29 ng/mL | 6.35 ng/mL | 6.26 ± 0.07 ng/mL | 6.31 ng/mL | 6.21 ng/mL | 98% | 98% | 2%
CC(C)=CCC[C@](C)(O)[C@H]1CC[C@]2(C)[C@@H]1[C@H](O)C[C@@H]1[C@@]3(C)CC[C@H](O)C(C)(C)[C@@H]3[C@@H](O[C@@H]3O[C@H](CO)[C@@H](O)[C@H](O)[C@H]3O[C@@H]3O[C@@H](C)[C@H](O)[C@@H](O)[C@H]3O)C[C@]12C [Rg2] | 110% | 6.15 ± 0.21 ng/mL | 6 ng/mL | 6.3 ng/mL | 6.09 ± 0.09 ng/mL | 6.15 ng/mL | 6.02 ng/mL | 101% | 90% | 1%
CC(C)=CCC[C@](C)(O)[C@H]1CC[C@]2(C)[C@@H]1[C@H](O)C[C@@H]1[C@@]3(C)CC[C@H](O)C(C)(C)[C@@H]3[C@@H](O[C@@H]3O[C@H](CO)[C@@H](O)[C@H](O)[C@H]3O)C[C@]12C [Rh1] | 105% | 6.13 ± 0.04 ng/mL | 6.15 ng/mL | 6.1 ng/mL | 5.46 ± 0.20 ng/mL | 5.6 ng/mL | 5.32 ng/mL | 98% | 90% | 3%
